Assay results: PubChem BioAssay (NCI)
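Here, GI50 denotes the concentration required for 50% inhibition of growth. Definition used: TGI = concentration required for complete inhibition of growth.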

Tests used:
Assay in all cases: inhibition of tumour cell growth, NCI panel, 384-well format
786-0 renal = test system: 786-0 renal
A498 renal = test system: A498 renal
A549 NSCLC = test system: A549 NSCLC
ACHN renal = test system: ACHN renal
BT-549 breast = test system: BT-549 breast
CAKI-1 renal = test system: CAKI-1 renal
CCRF-CEM leukemia = test system: CCRF-CEM leukemia
COLO 205 colon = test system: COLO 205 colon
DU-145 prostate = test system: DU-145 prostate
EKVX NSCLC = test system: EKVX NSCLC
HCC-2998 colon = test system: HCC-2998 colon
HCT-116 colon = test system: HCT-116 colon
HCT-15 colon = test system: HCT-15 colon
HL-60(TB) leukemia = test system: HL-60(TB) leukemia
HOP-62 NSCLC = test system: HOP-62 NSCLC
HOP-92 NSCLC = test system: HOP-92 NSCLC
HS 578T breast = test system: HS 578T breast
HT29 colon = test system: HT29 colon
IGROV1 ovarian = test system: IGROV1 ovarian
K-562 leukemia = test system: K-562 leukemia
KM12 colon = test system: KM12 colon
LOX IMVI melanoma = test system: LOX IMVI melanoma
M14 melanoma = test system: M14 melanoma
MALME-3M melanoma = test system: MALME-3M melanoma
MCF7 breast = test system: MCF7 breast
MDA-MB-231 breast = test system: MDA-MB-231 breast
MDA-MB-435 melanoma = test system: MDA-MB-435 melanoma
MDA-MB-468 breast = test system: MDA-MB-468 breast
MOLT-4 leukemia = test system: MOLT-4 leukemia
NCI-H226 lung = test system: NCI-H226 lung
NCI-H23 lung = test system: NCI-H23 lung
NCI-H322M lung = test system: NCI-H322M lung
NCI-H460 NSCLC = test system: NCI-H460 NSCLC
NCI-H522 lung = test system: NCI-H522 lung
NCI/ADR-RES ovarian = test system: NCI/ADR-RES ovarian
OVCAR-3 ovarian = test system: OVCAR-3 ovarian
OVCAR-4 ovarian = test system: OVCAR-4 ovarian
OVCAR-5 ovarian = test system: OVCAR-5 ovarian
OVCAR-8 ovarian = test system: OVCAR-8 ovarian
PC-3 prostate = test system: PC-3 prostate
RPMI-8226 leukemia = test system: RPMI-8226 leukemia
RXF 393 renal = test system: RXF 393 renal
SF-268 CNS = test system: SF-268 CNS
SF-295 CNS = test system: SF-295 CNS
SF-539 CNS = test system: SF-539 CNS
SK-MEL-28 melanoma = test system: SK-MEL-28 melanoma
SK-MEL-5 melanoma = test system: SK-MEL-5 melanoma
SK-OV-3 ovarian = test system: SK-OV-3 ovarian
SN12C renal = test system: SN12C renal
SNB-19 CNS = test system: SNB-19 CNS
SNB-75 CNS = test system: SNB-75 CNS
SW-620 colon = test system: SW-620 colon
T-47D breast = test system: T-47D breast
TK-10 renal = test system: TK-10 renal
U251 glioblastoma = test system: U251 glioblastoma
UACC-257 melanoma = test system: UACC-257 melanoma
UACC-62 melanoma = test system: UACC-62 melanoma
UO-31 renal = test system: UO-31 renal

Structure (SMILES): CCN1CCN(c2ccc(Nc3cc(N(C)C(=O)Nc4c(Cl)c(OC)cc(OC)c4Cl)ncn3)cc2)CC1
- GI50 ([…]-0 renal): 1430 nM
- TGI (786-0 renal): 2760 nM
- GI50 (A498 renal): 478 nM
- TGI (A498 renal): 1920 nM
- GI50 (A549 NSCLC): 1910 nM
- TGI (A549 NSCLC): 3850 nM
- GI50 (ACHN renal): 1400 nM
- TGI (ACHN renal): 3000 nM
- GI50 (BT-549 breast): 518 nM
- TGI (BT-549 breast): 1990 nM
- GI50 (CAKI-1 renal): 590 nM
- TGI (CAKI-1 renal): 2120 nM
- GI50 (CCRF-CEM leukemia): 1580 nM
- TGI (CCRF-CEM leukemia): 2950 nM
- GI50 (COLO 205 colon): 1940 nM
- TGI (COLO 205 colon): 3440 nM
- GI50 (DU-145 prostate): 1760 nM
- TGI (DU-145 prostate): 5320 nM
- GI50 (EKVX NSCLC): 1190 nM
- TGI (EKVX NSCLC): 2930 nM
- GI50 (HCC-2998 colon): 1920 nM
- TGI (HCC-2998 colon): 3890 nM
- GI50 (HCT-116 colon): 1440 nM
- TGI (HCT-116 colon): 2800 nM
- GI50 (HCT-15 colon): 688 nM
- TGI (HCT-15 colon): 2390 nM
- GI50 (HL-60(TB) leukemia): 1880 nM
- TGI (HL-60(TB) leukemia): 3300 nM
- GI50 (HOP-62 NSCLC): 1910 nM
- TGI (HOP-62 NSCLC): 3930 nM
- GI50 (HOP-92 NSCLC): 1700 nM
- TGI (HOP-92 NSCLC): 3360 nM
- GI50 (HS 578T breast): 1190 nM
- TGI (HS 578T breast): 2500 nM
- GI50 (HT29 colon): 756 nM
- TGI (HT29 colon): 2020 nM
- GI50 (IGROV1 ovarian): 273 nM
- TGI (IGROV1 ovarian): 702 nM
- GI50 (K-562 leukemia): 430 nM
- TGI (K-562 leukemia): 1480 nM
- GI50 (KM12 colon): 2230 nM
- TGI (KM12 colon): 4300 nM
- GI50 (LOX IMVI melanoma): 1660 nM
- TGI (LOX IMVI melanoma): 3060 nM
- GI50 (M14 melanoma): 1390 nM
- TGI (M14 melanoma): 2690 nM
- GI50 (MALME-3M melanoma): 1470 nM
- TGI (MALME-3M melanoma): 2800 nM
- GI50 (MCF7 breast): 1410 nM
- TGI (MCF7 breast): 2950 nM
- GI50 (MDA-MB-231 breast): 2130 nM
- TGI (MDA-MB-231 breast): 4720 nM
- GI50 (MDA-MB-435 melanoma): 1880 nM
- TGI (MDA-MB-435 melanoma): 3340 nM
- GI50 (MDA-MB-468 breast): 1290 nM
- TGI (MDA-MB-468 breast): 2610 nM
- GI50 (MOLT-4 leukemia): 1170 nM
- TGI (MOLT-4 leukemia): 2390 nM
- GI50 (NCI-H226 lung): 24.6 nM
- TGI (NCI-H226 lung): 5810 nM
- GI50 (NCI-H23 lung): 2340 nM
- TGI (NCI-H23 lung): 6210 nM
- GI50 (NCI-H322M lung): 2300 nM
- TGI (NCI-H322M lung): 6250 nM
- GI50 (NCI-H460 NSCLC): 1230 nM
- TGI (NCI-H460 NSCLC): 2530 nM
- GI50 (NCI-H522 lung): 475 nM
- TGI (NCI-H522 lung): 1460 nM
- GI50 (NCI/ADR-RES ovarian): 2160 nM
- TGI (NCI/ADR-RES ovarian): 4890 nM
- GI50 (OVCAR-3 ovarian): 1040 nM
- TGI (OVCAR-3 ovarian): 2340 nM
- GI50 (OVCAR-4 ovarian): 1280 nM
- TGI (OVCAR-4 ovarian): 3360 nM
- GI50 (OVCAR-5 ovarian): 2180 nM
- TGI (OVCAR-5 ovarian): 5140 nM
- GI50 (OVCAR-8 ovarian): 1770 nM
- TGI (OVCAR-8 ovarian): 3380 nM
- GI50 (PC-3 prostate): 2040 nM
- TGI (PC-3 prostate): 4950 nM
- GI50 (RPMI-8226 leukemia): 1900 nM
- TGI (RPMI-8226 leukemia): 3330 nM
- GI50 (RXF 393 renal): 1290 nM
- TGI (RXF 393 renal): 2590 nM
- GI50 (SF-268 CNS): 1110 nM
- TGI (SF-268 CNS): 2610 nM
- GI50 (SF-295 CNS): 1750 nM
- TGI (SF-295 CNS): 3160 nM
- GI50 (SF-539 CNS): 1420 nM
- TGI (SF-539 CNS): 2830 nM
- GI50 (SK-MEL-28 melanoma): 1860 nM
- TGI (SK-MEL-28 melanoma): 3280 nM
- GI50 (SK-MEL-5 melanoma): 1300 nM
- TGI (SK-MEL-5 melanoma): 2580 nM
- GI50 (SK-OV-3 ovarian): 365 nM
- TGI (SK-OV-3 ovarian): 1360 nM
- GI50 (SN12C renal): 753 nM
- TGI (SN12C renal): 2200 nM
- GI50 (SNB-19 CNS): 2500 nM
- TGI (SNB-19 CNS): 7510 nM
- GI50 (SNB-75 CNS): 193 nM
- TGI (SNB-75 CNS): 2290 nM
- GI50 (SW-620 colon): 1840 nM
- TGI (SW-620 colon): 3470 nM
- GI50 (T-47D breast): 453 nM
- TGI (T-47D breast): 1420 nM
- GI50 (TK-10 renal): 1550 nM
- TGI (TK-10 renal): 3440 nM
- GI50 (U251 glioblastoma): 1460 nM
- TGI (U251 glioblastoma): 2800 nM
- GI50 (UACC-257 melanoma): 1610 nM
- TGI (UACC-257 melanoma): 2960 nM
- GI50 (UACC-62 melanoma): 1720 nM
- TGI (UACC-62 melanoma): 3130 nM
- GI50 (UO-31 renal): 1370 nM
- TGI (UO-31 renal): 2670 nM
